According to US9944589B2, “Cycloproplyamine derivatives useful as inhibitors of histone demethylases KDM1A” (Istituto Europeo de Oncologia S.r.L., priority 2012, dated 2018):
Where a name gives a salt, the structure may show the parent alone.

Key:
Human recombinant MAO B = target: T1, Human recombinant MAO B (Homo sapiens, UniProt P27338); conditions: ratio of IC50 against MAO-B over IC50 for LSD1
T1 sequence (P27338 1-520): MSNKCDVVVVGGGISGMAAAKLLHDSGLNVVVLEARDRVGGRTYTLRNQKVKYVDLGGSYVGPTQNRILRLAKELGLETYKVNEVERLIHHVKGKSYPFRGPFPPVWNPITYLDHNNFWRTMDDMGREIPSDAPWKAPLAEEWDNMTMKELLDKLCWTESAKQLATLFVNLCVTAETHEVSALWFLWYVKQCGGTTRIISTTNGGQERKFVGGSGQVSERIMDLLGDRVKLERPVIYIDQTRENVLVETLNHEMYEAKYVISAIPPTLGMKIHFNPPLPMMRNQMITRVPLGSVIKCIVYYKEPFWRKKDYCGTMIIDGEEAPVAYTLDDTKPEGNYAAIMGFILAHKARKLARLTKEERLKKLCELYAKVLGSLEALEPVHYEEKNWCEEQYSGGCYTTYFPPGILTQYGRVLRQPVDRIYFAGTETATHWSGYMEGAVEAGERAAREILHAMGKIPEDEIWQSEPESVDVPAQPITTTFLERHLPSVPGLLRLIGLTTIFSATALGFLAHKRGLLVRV
Experimental: The MAO-Glo Assay from Promega (cat. V1402, Promega, Madison, Wis.) was used to measure the effect of inhibitors on MAO-A and MAO-B activity.
After 30 minutes of incubation the reaction was stopped with the Promega detection reagent. The experiments were carried out in duplicate. IC50 was calculated using GraphPad Prism version 4.0 (GraphPad Software, San Diego, Calif.).

[1] = tested on: Acute promyelocytic leukemia NB4 cells; assay: Cell growth (CellTiter-Fluor cell viability assay); type: cell-based; conditions: Homo sapiens, NB-4, 48 h, range classes, read-out: IC50 [μM], cell growth inhibitory assay
How it was run: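 Exponentially growing NB4 cells exposed to a range of inhibitor concentrations for 48 h. Viability then read as live-cell protease fluorescence (ex 360/em 535 nm) after ≥90 min reagent incubation at 37 °C; IC50 calculated from the data.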

[2] = tested on: mouse model of leukemia resembling the human acute promyelocytic leukemia; assay: In vivo activity, mouse leukemia model, splenomegaly as read out of blast infiltration; conditions: orally, 30 mg/kg, 4 days, leukemic mice
Experimental: The in vivo activity was conducted on a mouse model as characterized by Minucci et al. (Minucci S. et al. Blood 2002, 100, 2989-2995) The model is characterized by the development of leukemia, resembling the human acute promyelocytic leukemia, which is associated to a blast infiltration of several organs as bone marrow, liver and particularly of the spleen. In the conducted experiment, splenomegaly was studied as read out of blast infiltration and development of leukemia.
For the in vivo analysis, one million of leukemic cells (obtained from 129SvEv mice, Minucci S. et al. Blood 2002, 100, 2989-2995, obtained from Taconic, One Hudson City Centre Hudson, N.Y. (USA)) were injected intravenously into non-irradiated syngenic recipients. Treatment started once blast cells are detected in the recipients' peripheral blood (9 days after injection). The compounds were intravenously or orally administered at doses of 10 and 30 mg/kg for 4 days. […] after blast injection the mice were sacrificed and the spleens recovered. The weights of the spleen of the mice of the vehicle groups as well as of the treated groups were registered and used as evidence of effect on blast infiltration. […]
Compound A-36 administered orally at 30 mg/kg determined a reduction of the spleen weight of around 50% compared to mice treated with the vehicle (40% PEG-400, 60% aqueous solution containing 5% glucose) alone.

[3] = target: T2, human recombinant KDM1A (LSD1)/CoRest (Homo sapiens, UniProt O60341); assay: Assay of enzyme inhibition of KDM1A (LSD1), Amplex UltraRed/peroxidase coupled; type: biochemical; conditions: 15 min preincubation, 4.5 μM mono-methylated H3-K4 peptide, range classes, read-out: IC50 [μM], KDM1A inhibition assay
T2 construct: made in house; host or cells: E. coli
How it was run: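 KDM1A/CoRest complex with inhibitor (e.g. 0–100 μM) and Amplex UltraRed/peroxidase preincubated 15 min at RT. Substrate: mono-methylated H3K4 21-mer peptide in 50 mM Tris pH 8, 0.05 mg/ml BSA, aerobic. IC50 from duplicates run twice, background-corrected.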

| Compound | IC50 (MAO-B)/IC50 (LSD1) (Human recombinant MAO B) | IC50 [1] | IC50 [3] | reduction of the spleen weight compared to mice treated with the vehicle [2] |
| --- | --- | --- | --- | --- |
| CC[C@@]1(N)C[C@H]1c1ccc(NC(=O)c2ccc(-c3ccccc3)cc2)cc1 (relative stereo) [Example A-36, N-[4-[(trans)-2-amino-2-ethyl-cyclopropyl]phenyl]-4-phenyl-benzamide hydrochloride] | 16 | ≤ 10 µM |  | around 50% |
| N[C@]1(CCc2ccccc2)C[C@H]1c1ccc(NC(=O)c2ccccc2)cc1 (relative stereo) [Example A-114, N-[4-trans-2-amino-2-phenethyl-cyclopropyl)phenyl] benzamide hydrochloride] | >100 | ≤ 10 µM | < 0.1 µM |  |
| CN1CCN(c2ccc(C(=O)Nc3ccc([C@@H]4C[C@]4(N)CCc4ccccc4)cc3)cc2)CC1 (relative stereo) [Example A-116, N-[4-(trans-2-amino-2-phenethyl-cyclopropyl)phenyl]-4-(4-methylpiperazin-1-yl)benzamide dihydrochloride] | >100 | ≤ 10 µM | < 0.1 µM |  |

Now from value to compound, other results behind:

| IC50 (MAO-B)/IC50 (LSD1) (Human recombinant MAO B) | IC50 [1] | IC50 [3] | Compound | reduction of the spleen weight compared to mice treated with the vehicle [2] |
| --- | --- | --- | --- | --- |
| >100 |  | < 0.1 µM | CC[C@]1(N)C[C@@H]1c1ccc(NC(=O)c2ccccc2)cc1.Cl (relative stereo) [Example A-47, N-[4-[trans-2-amino-2-ethyl-cyclopropyl]phenyl]benzamide hydrochloride] |  |
| 60 | ≤ 10 µM | < 0.1 µM | CC[C@@]1(N)C[C@H]1c1ccc(NC(=O)c2ccc(-c3ccoc3)cc2)cc1 (relative stereo) [Example A-78, N-[4-[trans-2-amino-2-ethyl-cyclopropyl]phenyl]-4-(3-furyl) benzamide hydrochloride] |  |
| >100 | ≤ 10 µM | < 0.1 µM | CC[C@@]1(N)C[C@H]1c1ccc(NC(=O)c2cccc(N3CCOC3=O)c2)cc1 (relative stereo) [Example A-98, N-[4-[trans-2-amino-2-ethyl-cyclopropyl]phenyl]-3-(2-oxooazolidin-3-yl)benzamide 2,2,2-trifluoroacetic acid] |  |
